compound: Cc1ccccc1C(C(=O)NC1CCCCC1)N(C(=O)Cn1ccnc1C)c1cccc(F)c1 [IDH-C35] + CC(=O)Nc1cccc(-n2c(=O)n(C3CC3)c(=O)c3c(Nc4ccc(I)cc4F)n(C)c(=O)c(C)c32)c1 [Trametinib] (partner 0.02 µM); experiment: relative viability (nuclei count vs DMSO), 5 days (fraction); higher = more cells survive; conditions: first compound 8 µM
Method in brief: (§1)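 Relative viability divides the nuclei count in treated wells by that in vehicle wells. Lung cancer cell lines were seeded in 1536-well plates, dosed by pin tool the next day, and fixed and stained after 5 days in one step with final 0.05% Triton X-100, 1% formaldehyde and 1 ug/ml Hoechst. Dosing was a single drug or a fixed anchor-drug dose plus five library-drug doses (not always all listed) in √10 steps, and values are medians of duplicate plates imaged at 4×.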

Cell Line | relative viability
NCI-H1437 | 0.489

compound: Cc1ccccc1C(C(=O)NC1CCCCC1)N(C(=O)Cn1ccnc1C)c1cccc(F)c1 [IDH-C35] + CCNC(=O)c1noc(-c2cc(C(C)C)c(O)cc2O)c1-c1ccc(CN2CCOCC2)cc1 [Luminespib] (partner 0.01 µM); experiment: as above; conditions: first compound 0.08 µM
Method in brief: as §1

Cell Line | relative viability
LOU-NH91 | 0.331
NCI-H2405 | 0.755
HOP-62 | 0.944
HCC-44 | 1.06
LU99A | 0.244
BEN | 0.373
HARA | 0.783
NCI-H322M | 0.921
LCLC-97TM1 | 0.842
NCI-H2009 | 1.08
A-427 | 0.914
NCI-H441 | 0.26
NCI-H661 | 0.905
NCI-H1734 | 0.193
NCI-H460 | 0.0343
NCI-H2347 | 0.653

Cell Line | relative viability
SK-LU-1 | 0.219
NCI-H1395 | 0.757
201T | 1.05
NCI-H1915 | 0.787
HCC-827 | 0.788
LXF-289 | 0.512
NCI-H23 | 0.207
NCI-H647 | 0.146
CAL-12T | 0.498
NCI-H1651 | 0.861
EPLC-272H | 0.262
NCI-H2228 | 0.213
NCI-H1792 | 0.477
NCI-H1355 | 0.703
NCI-H3122 | 0.0958
NCI-H1437 | 1.08

same assay, conditions: first compound 0.253 µM

Cell Line | relative viability
LOU-NH91 | 0.368
NCI-H2405 | 0.63
HOP-62 | 0.849
HCC-44 | 1.06
LU99A | 0.286
BEN | 0.391
HARA | 0.761
NCI-H322M | 0.784
LCLC-97TM1 | 0.734
NCI-H2009 | 1.01
A-427 | 0.892
NCI-H441 | 0.306
NCI-H661 | 0.907
NCI-H1734 | 0.215
NCI-H460 | 0.0424
NCI-H2347 | 0.575

Cell Line | relative viability
SK-LU-1 | 0.207
NCI-H1395 | 0.655
201T | 1.07
NCI-H1915 | 0.715
HCC-827 | 0.526
LXF-289 | 0.631
NCI-H23 | 0.224
NCI-H647 | 0.256
CAL-12T | 0.314
NCI-H1651 | 0.6
EPLC-272H | 0.265
NCI-H2228 | 0.152
NCI-H1792 | 0.473
NCI-H1355 | 0.72
NCI-H3122 | 0.105
NCI-H1437 | 1.04

same assay, conditions: first compound 0.8 µM

Cell Line | relative viability
LOU-NH91 | 0.297
NCI-H2405 | 0.614
HOP-62 | 0.822
HCC-44 | 0.986
LU99A | 0.239
BEN | 0.311
HARA | 0.637
NCI-H322M | 0.826
LCLC-97TM1 | 0.682
NCI-H2009 | 0.999
A-427 | 0.785
NCI-H441 | 0.293
NCI-H661 | 0.963
NCI-H1734 | 0.214
NCI-H460 | 0.0346
NCI-H2347 | 0.48

Cell Line | relative viability
SK-LU-1 | 0.188
NCI-H1395 | 0.744
201T | 1.02
NCI-H1915 | 0.755
HCC-827 | 0.472
LXF-289 | 0.654
NCI-H23 | 0.201
NCI-H647 | 0.357
CAL-12T | 0.36
NCI-H1651 | 0.67
EPLC-272H | 0.605
NCI-H2228 | 0.111
NCI-H1792 | 0.499
NCI-H1355 | 0.693
NCI-H3122 | 0.0707
NCI-H1437 | 1.06

same assay, conditions: first compound 2.53 µM

Cell Line | relative viability
LOU-NH91 | 0.354
NCI-H2405 | 0.706
HOP-62 | 0.923
HCC-44 | 1.04
LU99A | 0.236
BEN | 0.425
NCI-H322M | 0.833
LCLC-97TM1 | 0.738
NCI-H2009 | 0.921
A-427 | 0.87
NCI-H441 | 0.293
NCI-H661 | 0.882
NCI-H1734 | 0.19
NCI-H460 | 0.0408
NCI-H2347 | 0.508
SK-LU-1 | 0.225

Cell Line | relative viability
NCI-H1395 | 0.763
201T | 1.04
NCI-H1915 | 0.815
HCC-827 | 0.569
LXF-289 | 0.697
NCI-H23 | 0.202
NCI-H647 | 0.241
CAL-12T | 0.188
NCI-H1651 | 0.797
EPLC-272H | 0.351
NCI-H2228 | 0.184
NCI-H1792 | 0.413
NCI-H1355 | 0.722
NCI-H3122 | 0.106
NCI-H1437 | 1.06

same assay, conditions: first compound 8 µM

Cell Line | relative viability
LOU-NH91 | 0.328
NCI-H2405 | 0.64
HOP-62 | 0.927
HCC-44 | 1.05
LU99A | 0.25
BEN | 0.333
HARA | 0.617
NCI-H322M | 0.942
LCLC-97TM1 | 0.604
NCI-H2009 | 1.01
A-427 | 0.852
NCI-H441 | 0.399
NCI-H661 | 0.914
NCI-H1734 | 0.191
NCI-H460 | 0.0379
NCI-H2347 | 0.369

Cell Line | relative viability
SK-LU-1 | 0.259
NCI-H1395 | 0.714
201T | 1.01
NCI-H1915 | 0.747
HCC-827 | 0.516
LXF-289 | 0.676
NCI-H23 | 0.227
NCI-H647 | 0.126
CAL-12T | 0.363
NCI-H1651 | 0.716
EPLC-272H | 0.428
NCI-H2228 | 0.155
NCI-H1792 | 0.493
NCI-H1355 | 0.72
NCI-H3122 | 0.0868
NCI-H1437 | 1.1

compound: Cc1ccccc1C(C(=O)NC1CCCCC1)N(C(=O)Cn1ccnc1C)c1cccc(F)c1 [IDH-C35] + C[C@]1(O)C[C@@H](c2nc(-c3ccc4ccc(-c5ccccc5)nc4c3)c3c(N)nccn32)C1 [Linsitinib] (partner 1 µM); experiment: as above; conditions: first compound 0.08 µM
Method in brief: as §1

Cell Line | relative viability
LOU-NH91 | 0.944
NCI-H2405 | 0.974
HOP-62 | 1.15
HCC-44 | 0.656
LU99A | 0.569
BEN | 0.831
HARA | 0.993
NCI-H322M | 0.965
LCLC-97TM1 | 0.209
NCI-H2009 | 1.18
A-427 | 1.13
NCI-H441 | 0.589
NCI-H661 | 0.625
NCI-H1734 | 0.891
NCI-H460 | 0.909
NCI-H2347 | 0.973

Cell Line | relative viability
SK-LU-1 | 0.999
NCI-H1395 | 1.2
201T | 1.03
NCI-H1915 | 1.13
HCC-827 | 0.99
LXF-289 | 0.94
NCI-H23 | 0.514
NCI-H647 | 1.03
CAL-12T | 0.841
NCI-H1651 | 0.918
EPLC-272H | 1.12
NCI-H2228 | 0.596
NCI-H1792 | 0.522
NCI-H1355 | 0.896
NCI-H3122 | 0.991
NCI-H1437 | 0.998

same assay, conditions: first compound 0.253 µM

Cell Line | relative viability
LOU-NH91 | 0.998
NCI-H2405 | 0.957
HOP-62 | 0.803
HCC-44 | 0.628
LU99A | 0.536
BEN | 0.899
HARA | 0.933
NCI-H322M | 0.878
LCLC-97TM1 | 0.194
NCI-H2009 | 1.24
A-427 | 1.17
NCI-H441 | 0.518
NCI-H661 | 0.54
NCI-H1734 | 0.862
NCI-H460 | 0.872
NCI-H2347 | 0.932

Cell Line | relative viability
SK-LU-1 | 1.03
NCI-H1395 | 1.04
201T | 1.06
NCI-H1915 | 1.12
HCC-827 | 0.889
LXF-289 | 0.971
NCI-H23 | 0.541
NCI-H647 | 1.29
CAL-12T | 0.826
NCI-H1651 | 0.925
EPLC-272H | 1.31
NCI-H2228 | 0.496
NCI-H1792 | 0.508
NCI-H1355 | 0.859
NCI-H3122 | 0.971
NCI-H1437 | 1.14

same assay, conditions: first compound 0.8 µM

Cell Line | relative viability
LOU-NH91 | 0.968
NCI-H2405 | 0.928
HOP-62 | 0.924
HCC-44 | 0.647
LU99A | 0.506
BEN | 0.813
HARA | 1.04
NCI-H322M | 0.81
LCLC-97TM1 | 0.179
NCI-H2009 | 1.16
A-427 | 1.07
NCI-H441 | 0.404
NCI-H661 | 0.51
NCI-H1734 | 0.839
NCI-H460 | 0.843
NCI-H2347 | 1.01

Cell Line | relative viability
SK-LU-1 | 1.07
NCI-H1395 | 1.1
201T | 1.01
NCI-H1915 | 1.1
HCC-827 | 0.98
LXF-289 | 0.936
NCI-H23 | 0.541
NCI-H647 | 1.18
CAL-12T | 0.779
NCI-H1651 | 0.966
EPLC-272H | 1.08
NCI-H2228 | 0.629
NCI-H1792 | 0.486
NCI-H1355 | 0.848
NCI-H3122 | 0.972
NCI-H1437 | 0.989

same assay, conditions: first compound 2.53 µM

Cell Line | relative viability
LOU-NH91 | 0.927
HCC-44 | 0.876
LU99A | 0.593
BEN | 0.906
HARA | 0.988
NCI-H322M | 0.95
NCI-H2009 | 1.23
A-427 | 1.1
NCI-H441 | 0.651
NCI-H661 | 0.54
NCI-H1734 | 0.772
NCI-H460 | 0.749
NCI-H2347 | 0.987
SK-LU-1 | 1.22
NCI-H1395 | 1.09
201T | 0.992
NCI-H1915 | 1.07
HCC-827 | 0.837
LXF-289 | 0.949
NCI-H23 | 0.523
NCI-H647 | 1.1
CAL-12T | 0.733
NCI-H1651 | 1.02
NCI-H2228 | 0.668
NCI-H1792 | 0.555
NCI-H1355 | 0.773
NCI-H3122 | 1.01
NCI-H1437 | 1.14

same assay, conditions: first compound 8 µM

Cell Line | relative viability
LOU-NH91 | 0.973
NCI-H2405 | 0.907
HOP-62 | 1.01
HCC-44 | 0.69
LU99A | 0.6
BEN | 0.99
HARA | 0.907
NCI-H322M | 0.794
LCLC-97TM1 | 0.193
NCI-H2009 | 1.14
A-427 | 1.18
NCI-H441 | 0.633
NCI-H661 | 0.644
NCI-H1734 | 0.833
NCI-H460 | 0.663
NCI-H2347 | 0.918

Cell Line | relative viability
SK-LU-1 | 1.1
NCI-H1395 | 0.956
201T | 0.955
NCI-H1915 | 1.09
HCC-827 | 1
LXF-289 | 0.956
NCI-H23 | 0.505
NCI-H647 | 1.1
CAL-12T | 0.826
NCI-H1651 | 0.903
EPLC-272H | 1.25
NCI-H2228 | 0.749
NCI-H1792 | 0.66
NCI-H1355 | 0.892
NCI-H3122 | 1.02
NCI-H1437 | 1.03

Source: the supplement of paper PMC10307832
